Where no end group is shown, it is not given here.
What was measured:
[1] = tested on: S. aureus 29213; test: Salt sensitivity assay (MIC); format: cell-based, Staphylococcus aureus; settings: for MIC, FeCl3: 4 μM FeCl3; for MIC, NH4Cl: 6 μM NH4Cl; for MIC, ZnCl2: 8 μM ZnCl2; for MIC, MgCl2: 1 mM MgCl2; for MIC, CaCl2: 2 mM CaCl2; for MIC, KCl: 4.5 mM KCl; for MIC, NaCl: 150 mM NaCl; for MIC, Control: no added salt, three independent assays
Protocol: (§1) The antimicrobial activities of the peptides were measured using a method adapted from the National Committee for Clinical Laboratory Standards (NCCLS) with some modifications ([Chou et al., 2016]). The specific procedure for these assays has been previously described. In brief, the bacterial cells were grown to a mid-logarithmic phase and diluted in MHB to an ultimate concentration of 0.5–1 × 10^6 CFU mL^–1. Subsequently, the peptides were consecutively diluted in a 0.2% BSA solution and then added to a bacterial solution in a 96-well plate at identical volumes. After incubation for 24 h at 37°C, the MICs were determined to be the lowest peptide concentration that inhibited 95% of the bacterial growth by monitoring the absorbance at 492 nm using a microplate reader. Subsequently, 50 μL of each incubation mixture was further transferred to agar plates and incubated overnight. The minimum bactericidal concentrations (MBCs) were determined as the lowest peptide concentration that killed greater than 99.9% of the bacterial cells. Every assay was reproduced more than 3 times.
(§2) The salt sensitivities of the peptides were determined. E. coli ATCC 25922 and S. aureus ATCC 29213 were incubated in the presence of various ultimate concentrations of physiological salts (150 mM NaCl, 4.5 mM KCl, 6 μM NH4Cl, 8 μM ZnCl2, 1 mM MgCl2, 2mM CaCl2, and 4 μM FeCl3) according to our previous protocol ([Yang et al., 2019]). These tests were performed under the MICs, and three independent assays were performed.

[2] = tested on: S. aureus 29213; format: cell-based, Staphylococcus aureus; settings: 29213, 24 h
Protocol: as §1

[3] = tested on: S. aureus 25923; format: cell-based, Staphylococcus aureus; settings: 25923, 24 h
Protocol: as §1

[4] = tested on: P. aeruginosa 27853; format: cell-based, Pseudomonas aeruginosa; settings: 27853, 24 h
Protocol: as §1

[5] = tested on: Listeria monocytogenes CGMCC 1.1075; format: cell-based; settings: CGMCC 1.1075, 24 h
Protocol: as §1

[6] = tested on: E. faecalis 29212; format: cell-based, Enterococcus faecalis; settings: 29212, 24 h
Protocol: as §1

[7] = tested on: S. pullorum 7913; format: cell-based, Salmonella pullorum; settings: 7913, 24 h
Protocol: as §1

[8] = tested on: Gram-positive bacteria; settings: for GM, Gram-positive bacteria: geometric mean of MICs (Table 3); for TI, Gram-positive bacteria: therapeutic index TI = MHC/GM MIC
Protocol: (§3) The antimicrobial activity of AMPs is the most decisive index for evaluating the clinical application of antimicrobial drugs.
as §1, with “The minimum bactericidal concentrations (MBCs) were determined as the lowest peptide concentration that killed greater than 99.9% of the bacterial cells.” left out

[9] = tested on: Gram-negative bacteria; settings: for GM, Gram-negative bacteria: geometric mean of MICs (Table 3); for TI, Gram-negative bacteria: therapeutic index TI = MHC/GM MIC
Protocol: as §3
as §1, with “The minimum bactericidal concentrations (MBCs) were determined as the lowest peptide concentration that killed greater than 99.9% of the bacterial cells.” left out

[10] = tested on: all of the tested bacterial strains; test: Geometric mean of MICs, all tested bacterial strains; format: cell-based; settings: for GM, All: geometric mean of MICs across all tested strains; for TI, All: therapeutic index TI = MHC/GM MIC
Source text: The antimicrobial activity of AMPs is the most decisive index for evaluating the clinical application of antimicrobial drugs. Many antimicrobial agents inhibit bacterial growth rather than kill the bacteria quickly, and long-term infections are pathogens that are not completely killed, which results in bacterial severe drug resistance. […] The geometric mean (GM) values of the MICs/MBCs of the two series across all of the tested bacterial strains are represented in Table 3, which depicts the average bacteriostatic/bactericidal level of a peptide.
as §1

[11] = tested on: MRSA 43300; format: cell-based, methicillin-resistant S. aureus; settings: 43300, 24 h
Protocol: as §1

[12] = tested on: S. typhimurium 7731; format: cell-based, Salmonella typhimurium; settings: 7731, 24 h
Protocol: as §1

[13] = tested on: S. typhimurium 14028; format: cell-based, Salmonella typhimurium; settings: 14028, 24 h
Protocol: as §1

[14] = tested on: S. epidermidis 12228; format: cell-based, Staphylococcus epidermidis; settings: 12228, 24 h
Protocol: as §1

[15] = tested on: B. subtilis 63501; format: cell-based, Bacillus subtilis; settings: 63501, 24 h
Protocol: as §1

[16] = tested on: E. coli 25922; format: cell-based, Escherichia coli; settings: 25922, 24 h
Protocol: as §1

[17] = tested on: E. coli UB1005; format: cell-based, Escherichia coli; settings: UB1005, 24 h
Protocol: as §1

[18] = tested on: E. coli O78; format: cell-based, Escherichia coli; settings: O78, 24 h
Protocol: as §1

[19] = tested on: E. coli ATCC 25922; test: Salt sensitivity assay (MIC); format: cell-based, Escherichia coli; settings: for MIC, FeCl3: 4 μM FeCl3; for MIC, NH4Cl: 6 μM NH4Cl; for MIC, ZnCl2: 8 μM ZnCl2; for MIC, MgCl2: 1 mM MgCl2; for MIC, CaCl2: 2 mM CaCl2; for MIC, KCl: 4.5 mM KCl; for MIC, NaCl: 150 mM NaCl; for MIC, Control: no added salt, three independent assays
Protocol: as §1, §2

RWRWRRWWW-NH2 [W9]
MIC, FeCl3 [1]: 2 µM | MIC, NH4Cl [1]: 2 µM | MIC, ZnCl2 [1]: 2 µM | MIC, MgCl2 [1]: 2 µM | MIC, CaCl2 [1]: 4 µM | MIC, KCl [1]: 2 µM | MIC, NaCl [1]: 2 µM | MIC, Control [1]: 2 µM | MBC [2]: 4 µM | MIC [2]: 2 µM | MBC [3]: 4 µM | MIC [3]: 2 µM | MBC [4]: 16 µM | MIC [4]: 8 µM | MBC [5]: 8 µM | MIC [5]: 4 µM | MBC [6]: 8 µM | MIC [6]: 4 µM | MBC [7]: 8 µM | MIC [7]: 4 µM | GM, Gram-positive bacteria [8]: 2.44 µM | TI, Gram-positive bacteria [8]: 104.92 | GM, Gram-negative bacteria [9]: 4.67 µM | TI, Gram-negative bacteria [9]: 54.82 | GM, All [10]: 3.51 µM | TI, All [10]: 72.93 | MBC [11]: 4 µM | MIC [11]: 2 µM | MBC [12]: 8 µM | MIC [12]: 4 µM | MBC [13]: 16 µM | MIC [13]: 8 µM | MBC [14]: 4 µM | MIC [14]: 2 µM | MBC [15]: 4 µM | MIC [15]: 2 µM | MBC [16]: 8 µM | MIC [16]: 4 µM | MBC [17]: 8 µM | MIC [17]: 4 µM | MBC [18]: 8 µM | MIC [18]: 4 µM | MIC, FeCl3 [19]: 4 µM | MIC, NH4Cl [19]: 4 µM | MIC, ZnCl2 [19]: 8 µM | MIC, MgCl2 [19]: 8 µM | MIC, CaCl2 [19]: 16 µM | MIC, KCl [19]: 8 µM | MIC, NaCl [19]: 16 µM | MIC, Control [19]: 4 µM

RRWWWRWRW-NH2 [W8]
MIC, FeCl3 [1]: 2 µM | MIC, NH4Cl [1]: 4 µM | MIC, ZnCl2 [1]: 4 µM | MIC, MgCl2 [1]: 4 µM | MIC, CaCl2 [1]: 4 µM | MIC, KCl [1]: 1 µM | MIC, NaCl [1]: 2 µM | MIC, Control [1]: 2 µM | MBC [2]: 4 µM | MIC [2]: 2 µM | MBC [3]: 4 µM | MIC [3]: 2 µM | MBC [4]: 8 µM | MIC [4]: 4 µM | MBC [5]: 4 µM | MIC [5]: 2 µM | MBC [6]: 8 µM | MIC [6]: 4 µM | MBC [7]: 4 µM | MIC [7]: 2 µM | GM, Gram-positive bacteria [8]: 2.00 µM | TI, Gram-positive bacteria [8]: 64.00 | GM, Gram-negative bacteria [9]: 3.43 µM | TI, Gram-negative bacteria [9]: 37.32 | GM, All [10]: 2.71 µM | TI, All [10]: 47.23 | MBC [11]: 4 µM | MIC [11]: 2 µM | MBC [12]: 8 µM | MIC [12]: 4 µM | MBC [13]: 8 µM | MIC [13]: 4 µM | MBC [14]: 4 µM | MIC [14]: 2 µM | MBC [15]: 2 µM | MIC [15]: 1 µM | MBC [16]: 8 µM | MIC [16]: 4 µM | MBC [17]: 8 µM | MIC [17]: 4 µM | MBC [18]: 8 µM | MIC [18]: 4 µM | MIC, FeCl3 [19]: 2 µM | MIC, NH4Cl [19]: 4 µM | MIC, ZnCl2 [19]: 4 µM | MIC, MgCl2 [19]: 16 µM | MIC, CaCl2 [19]: 8 µM | MIC, KCl [19]: 16 µM | MIC, NaCl [19]: 32 µM | MIC, Control [19]: 4 µM

RWWWWRRWR-NH2 [W10]
MIC, FeCl3 [1]: 1 µM | MIC, NH4Cl [1]: 1 µM | MIC, ZnCl2 [1]: 1 µM | MIC, MgCl2 [1]: 2 µM | MIC, CaCl2 [1]: 2 µM | MIC, KCl [1]: 2 µM | MIC, NaCl [1]: 2 µM | MIC, Control [1]: 2 µM | MBC [2]: 4 µM | MIC [2]: 2 µM | MBC [3]: 4 µM | MIC [3]: 2 µM | MBC [4]: 8 µM | MIC [4]: 4 µM | MBC [5]: 4 µM | MIC [5]: 2 µM | MBC [6]: 8 µM | MIC [6]: 4 µM | MBC [7]: 32 µM | MIC [7]: 16 µM | GM, Gram-positive bacteria [8]: 2.21 µM | TI, Gram-positive bacteria [8]: 115.84 | GM, Gram-negative bacteria [9]: 5.44 µM | TI, Gram-negative bacteria [9]: 47.06 | GM, All [10]: 3.67 µM | TI, All [10]: 69.75 | MBC [11]: 4 µM | MIC [11]: 2 µM | MBC [12]: 8 µM | MIC [12]: 4 µM | MBC [13]: 16 µM | MIC [13]: 8 µM | MBC [14]: 4 µM | MIC [14]: 2 µM | MBC [15]: 4 µM | MIC [15]: 2 µM | MBC [16]: 16 µM | MIC [16]: 8 µM | MBC [17]: 16 µM | MIC [17]: 8 µM | MBC [18]: 8 µM | MIC [18]: 4 µM | MIC, FeCl3 [19]: 4 µM | MIC, NH4Cl [19]: 8 µM | MIC, ZnCl2 [19]: 4 µM | MIC, MgCl2 [19]: 16 µM | MIC, CaCl2 [19]: 16 µM | MIC, KCl [19]: 16 µM | MIC, NaCl [19]: 32 µM | MIC, Control [19]: 8 µM

Reference: PMC7725003, “Systematically Studying the Optimal Amino Acid Distribution Patterns of the Amphiphilic Structure by Using the Ultrashort Amphiphiles” (Frontiers in Microbiology, 2020)
